# Data published in patent US9668988B2, “Controlled release oral pharmaceutical dosage forms comprising MGBG” (Pathologica LLC, priority 2011, dated 2017).
# Tests used:
# [1] = test system: beagle dogs; experiment: In vivo evaluation of enterically coated capsules: tolerability / clinical observations; details: single oral doses 10, 30, 100 mg/kg
# From the text: A comparative study of single, escalating doses of enterically coated MGBG capsules was undertaken in order to ascertain the feasibility and pharmacologic effect of delaying release of MGBG until the capsule has passed the stomach. […] Six male beagle dogs aged approximately 4 years 8 months to 5 years 6 months and weighing 10.95 to 12.85 kg (Covance Research Products) were weighed, acclimatized, and randomly assigned to treatment groups as shown below in Table 5.
# The test article was administered once at each dose level during the study orally via capsule. Duplicate sets of enteric-coated capsules were prepared for each animal at each dose and evaluated for dissolution. The duplicate sample was placed in a 0.1 N HCl solution, and stirred using a magnetic stir bar and stir plate, for at least two hours. Triplicate samples of the acidic dissolution media were collected for analysis of MGBG content. The capsule was transferred to a phosphate buffer solution (pH 6.8), and stirred using a magnetic stir bar and stir plate, for approximately one hour. The capsule was visually inspected for signs of deformation. […]
# Observations for morbidity, mortality, injury, and the availability of food and water were conducted twice daily for all animals. […] On occasion, clinical observations were recorded at unscheduled intervals. Body weights were measured and recorded on Days 1-4, 5, 12, and 32.
# [2] = Multi-species allometric scaling to predict human pharmacokinetic parameters; parameters: species or system humans; details: predicted human, ORAL, based on Mouse, Dog, Rhesus
# From the text: Multi-species allometric scaling based on pharmacokinetic parameters was employed to calculate predicted pharmacokinetic parameters in humans according to methods known in the art. See, e.g., Ings R M, “Interspecies scaling and comparisons in drug development and toxicokinetics,” Xenobiotica, 1990 November; 20(11):1201-31 and Khor, S P et al., “Dihydropyrimidine dehydrogenase inactivation and 5-fluorouracil pharmacokinetics: allometric scaling of animal data, pharmacokinetics and toxicodynamics of 5-fluorouracil in humans,” Cancer Chemother Pharmacol (1997) 39(3): 833-38. Expected values are given below in Table 2.
# [3] = test system: carrageenan-induced paw edema; experiment: murine carrageenan-induced paw edema model; assay type: in vivo, mice; details: PO BID (totaling 60 mg/kg/day)
# Protocol: (§1) In both the murine carrageenan-induced paw edema and hyperalgesia models, the top efficacious dose of MGBG is 30 mg/kg PO BID (totaling 60 mg/kg/day). Based upon this dosing paradigm in mice, at least two methods to estimate the equivalent dosing in humans may be used.
# (§2) In the murine carrageenan models, we also observed efficacy of MGBG at lower doses, including 3 mg/kg PO BID and 10 mg/kg PO BID, which would proportionally convert to human doses of ˜0.42 mg/kg/day and ˜1.2 mg/kg/day.
# [4] = test system: carrageenan-induced hyperalgesia; experiment: murine carrageenan-induced hyperalgesia model; assay type: in vivo, mice; details: PO BID (totaling 60 mg/kg/day)
# Protocol: as §1, §2
smiles,measurement,setting,value
"CC(/C=N/NC(=N)N)=N\NC(=N)N [MGBG, 1,1′[methylethanediylidene]dinitrilodiguanidine]",tolerability / survival,[1],All dose levels were tolerated with all animals surviving to study termination
same,CL/F,[2],20.9 mL/min/kg
same,V/F,[2],41.6 L/kg
same,t1/2,[2],23.0 h
same,CL/F,[2]; Rat,21.0 mL/min/kg
same,V/F,[2]; Rat,42.4 L/kg
same,t1/2,[2]; Rat,23.3 h
same,top efficacious dose,[3],30 mg/kg
same,top efficacious dose,[4],30 mg/kg
